Common to all, as to assay type: cell-based, canine
The subject of data set [1] is MDCK cells. Put plainly: cellular uptake study (LC-MS/MS of intracellular Cur). As to conditions: 10 min incubation, 5 μg Cur-equivalent (10 μg/mL). The method, then:
MDCK cells were seeded in 24-well plates and cultured following the procedures described in Cytotoxicity Assay section. The cells were treated with 500 µL of complete DMEM medium (pH 7.4) containing crystalline Cur, amorphous Cur, binary Cur/P188 ASD (1:8, w/w), or ternary Cur/P188/TW80 or Cur/P188/SLS ASDs (1:8:1, w/w/w), at Cur-equivalent dose of 5 µg per well. After 10 min of incubation, the treatment was terminated by immediate removal of the medium. The cells were then washed three times with ice-cold PBS, lysed with 200 µL of 0.1% SDS (assisted by sonication), and dissolved in methanol at a 1:2 (v/v) ratio. The total intracellular Cur content was quantified using LC-MS/MS. All experiments were performed in quadruplicate (n = 4).
Cur quantification in cellular and rat plasma samples was carried out using a SCIEX QTRAP® 5500 LC-MS/MS system coupled with a SCIEX ExionLC^TM AC system (AB SCIEX, Framingham, MA, USA).
Separation was achieved on an Acquity UPLC® BEH C18 column (100 × 2.1 mm, 1.7 μm; Waters) maintained at 40 °C. […]
Mass spectrometric detection was performed using an IonDrive^TM Turbo V ion (SCIEX, Framingham, MA, USA) source operating in negative electrospray ionization (ESI) mode. Quantification was conducted via multiple reaction monitoring (MRM) at m/z 367.1→133.9 for Cur, and m/z 294.1→250.0 for diclofenac sodium (IS). […]

Data set [2] deals with MDCK cells. Put plainly: cytotoxicity assay (CCK-8 cell viability). The note with it: 4 h treatment. The method, then: (§1) Madin-Darby Canine Kidney (MDCK) cells were seeded in 96-well plates (1 × 10^5 cells/well) and cultured for 24 h at 37 °C in complete DMEM (10% FBS, 1% penicillin–streptomycin) under 5% CO2. Cells were treated for 4 h with 100 µL of complete DMEM media (pH 7.4) containing crystalline Cur, amorphous Cur, binary Cur/P188 ASD (1:8, w/w), or ternary Cur/P188/TW80 or Cur/P188/SLS ASDs (1:8:1, w/w/w), at Cur-equivalent concentrations of 0 (vehicle), 2, 10, 25, 50, 100, and 200 μg/mL. After treatment, cells were washed three times with PBS (pH 7.4). Cell viability was assessed using a CCK-8 assay: 100 µL of serum-free DMEM and 10 µL of CCK-8 reagent were added to each well, followed by incubation for 2 h. Absorbance was measured at 450 nm using a Multiskan GO microplate reader (Thermo Fisher Scientific, Vantaa, Finland).
(§2) Cell viability was calculated according to the following equation:Viability (%) = [(As − Aᵦ)/(Ac − Aᵦ)] × 100% where
(§3) • As is the absorbance of experimental wells (cells + treatment + CCK-8); • Ac is the absorbance of control wells (cells + medium + CCK-8, no drug); • Aᵦ is the absorbance of blank wells (medium + CCK-8, no cells, no drug).
(§4) All experiments were performed in quintuplicate (n = 5).

Data set [3] can be described thus: cytotoxicity assay (CCK-8 cell viability). The note with it: dog, MDCK cells, pH 7.4, MDCK cells, 4 h treatment, read-out: IC50 (cytotoxicity, Cur-equivalent). The method, then:
as §1, §2, §3, §4

The IC50 is the concentration that inhibits the measured activity by half.

Regarding `COc1cc(/C=C/C(=O)CC(=O)/C=C/c2ccc(O)c(OC)c2)ccc1O` [Crystalline Cur, Curcumin], in the data set on MDCK cells [1], the “cellular uptake (% of the administered dose)” value is 0.2%. Further, the “concentrations with negligible toxicity” value in the data set on MDCK cells [2] was not above 25000 ng/mL. The IC50 at 4 h in data set [3] is 82.2 µg/mL.

Values taken from article PMC12736958 (Pharmaceutics, 2025).
